From ChEMBL document CHEMBL1141712, “Kinase array design, back to front: biaryl amides” (Bioorg Med Chem Lett, 2008)
Values belong to the molecule of their own block, whether it stands above or below them.

Tests used:
[1] = biological target: Mitogen-activated protein kinase 14 (Homo sapiens, UniProt Q16539); experiment: Displacement of fluorescent ATP competitive ligand from p38alpha
[2] = biological target: Dual specificity mitogen-activated protein kinase kinase 1 (Homo sapiens, UniProt Q02750); experiment: Inhibition of MEK1 by cRaf/mek/Erk cascade assay
Dual specificity mitogen-activated protein kinase kinase 1, sequence (Q02750 whole entry): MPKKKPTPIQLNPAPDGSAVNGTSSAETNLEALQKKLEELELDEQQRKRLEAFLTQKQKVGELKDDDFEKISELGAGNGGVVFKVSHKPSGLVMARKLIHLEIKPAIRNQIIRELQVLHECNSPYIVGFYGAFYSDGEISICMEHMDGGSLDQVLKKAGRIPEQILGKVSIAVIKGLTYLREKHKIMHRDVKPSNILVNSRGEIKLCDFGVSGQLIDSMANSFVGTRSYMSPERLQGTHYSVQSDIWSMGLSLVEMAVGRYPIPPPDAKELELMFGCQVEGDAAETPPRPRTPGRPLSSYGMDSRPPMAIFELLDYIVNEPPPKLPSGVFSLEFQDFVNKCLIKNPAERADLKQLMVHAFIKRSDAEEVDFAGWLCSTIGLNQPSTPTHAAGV

[3] = biological target: Serine/threonine-protein kinase PLK1 (Homo sapiens, UniProt P53350); experiment: Inhibition of PLK1
Serine/threonine-protein kinase PLK1, sequence (P53350 whole entry): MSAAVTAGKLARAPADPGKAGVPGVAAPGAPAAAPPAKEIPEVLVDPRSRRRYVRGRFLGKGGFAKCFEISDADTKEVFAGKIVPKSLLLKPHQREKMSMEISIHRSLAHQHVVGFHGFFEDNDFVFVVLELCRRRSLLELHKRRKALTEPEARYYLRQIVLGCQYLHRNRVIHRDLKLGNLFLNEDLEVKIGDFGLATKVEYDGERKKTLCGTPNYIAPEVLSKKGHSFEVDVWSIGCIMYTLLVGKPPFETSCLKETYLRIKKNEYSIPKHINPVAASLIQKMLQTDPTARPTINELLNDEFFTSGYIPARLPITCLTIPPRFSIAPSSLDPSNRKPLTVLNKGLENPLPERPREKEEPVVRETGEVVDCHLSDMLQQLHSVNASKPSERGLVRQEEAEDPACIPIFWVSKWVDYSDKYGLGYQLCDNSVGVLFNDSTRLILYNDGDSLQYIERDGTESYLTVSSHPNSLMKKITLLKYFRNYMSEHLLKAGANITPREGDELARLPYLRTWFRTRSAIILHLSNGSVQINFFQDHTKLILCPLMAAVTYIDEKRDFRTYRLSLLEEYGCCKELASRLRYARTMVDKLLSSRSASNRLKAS

[4] = biological target: Macrophage colony-stimulating factor 1 receptor (Homo sapiens, UniProt P07333); experiment: Inhibition of cFMS
[5] = biological target: Vascular endothelial growth factor receptor 2 (Homo sapiens, UniProt P35968); experiment: Inhibition of VEGFR2
Vascular endothelial growth factor receptor 2, sequence (P35968 whole entry): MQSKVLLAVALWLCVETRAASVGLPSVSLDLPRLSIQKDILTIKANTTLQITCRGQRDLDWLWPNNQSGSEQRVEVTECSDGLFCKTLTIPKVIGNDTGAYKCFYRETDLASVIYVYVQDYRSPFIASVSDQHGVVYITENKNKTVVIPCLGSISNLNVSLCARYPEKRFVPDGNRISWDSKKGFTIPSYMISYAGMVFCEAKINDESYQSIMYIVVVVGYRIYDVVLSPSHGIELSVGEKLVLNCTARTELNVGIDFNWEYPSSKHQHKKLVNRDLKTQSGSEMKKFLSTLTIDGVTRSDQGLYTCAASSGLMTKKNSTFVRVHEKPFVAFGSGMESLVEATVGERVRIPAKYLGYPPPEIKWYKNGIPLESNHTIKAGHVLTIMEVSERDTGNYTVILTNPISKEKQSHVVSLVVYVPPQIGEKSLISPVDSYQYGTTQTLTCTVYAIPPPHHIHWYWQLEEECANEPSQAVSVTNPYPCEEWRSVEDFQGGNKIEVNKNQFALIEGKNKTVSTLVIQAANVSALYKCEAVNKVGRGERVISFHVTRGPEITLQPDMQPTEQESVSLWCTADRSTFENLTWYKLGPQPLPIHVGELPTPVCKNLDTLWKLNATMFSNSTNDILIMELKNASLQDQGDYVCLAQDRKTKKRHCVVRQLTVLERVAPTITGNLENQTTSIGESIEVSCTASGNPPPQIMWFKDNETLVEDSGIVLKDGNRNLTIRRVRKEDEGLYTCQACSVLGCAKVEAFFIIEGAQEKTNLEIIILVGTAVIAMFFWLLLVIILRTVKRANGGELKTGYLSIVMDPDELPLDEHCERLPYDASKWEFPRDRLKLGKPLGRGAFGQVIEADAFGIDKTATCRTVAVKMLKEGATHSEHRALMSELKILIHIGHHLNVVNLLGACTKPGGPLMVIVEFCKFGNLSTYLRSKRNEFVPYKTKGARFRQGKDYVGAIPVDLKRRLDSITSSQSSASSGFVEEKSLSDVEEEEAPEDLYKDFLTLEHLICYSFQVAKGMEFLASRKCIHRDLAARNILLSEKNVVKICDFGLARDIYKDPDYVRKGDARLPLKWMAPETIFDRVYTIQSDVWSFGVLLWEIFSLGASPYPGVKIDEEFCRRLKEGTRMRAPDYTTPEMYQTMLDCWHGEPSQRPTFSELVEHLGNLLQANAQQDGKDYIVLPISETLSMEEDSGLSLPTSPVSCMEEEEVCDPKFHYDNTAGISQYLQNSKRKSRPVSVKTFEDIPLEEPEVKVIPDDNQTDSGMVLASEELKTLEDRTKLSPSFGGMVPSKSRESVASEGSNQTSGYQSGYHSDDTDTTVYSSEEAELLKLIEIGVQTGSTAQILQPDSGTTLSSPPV

[6] = biological target: Cyclin-dependent kinase 2 (Homo sapiens, UniProt P24941); experiment: Inhibition of CDK2
[7] = biological target: Mitogen-activated protein kinase 10 (Homo sapiens, UniProt P53779); experiment: Inhibition of JNK3
Mitogen-activated protein kinase 10, sequence (P53779 whole entry): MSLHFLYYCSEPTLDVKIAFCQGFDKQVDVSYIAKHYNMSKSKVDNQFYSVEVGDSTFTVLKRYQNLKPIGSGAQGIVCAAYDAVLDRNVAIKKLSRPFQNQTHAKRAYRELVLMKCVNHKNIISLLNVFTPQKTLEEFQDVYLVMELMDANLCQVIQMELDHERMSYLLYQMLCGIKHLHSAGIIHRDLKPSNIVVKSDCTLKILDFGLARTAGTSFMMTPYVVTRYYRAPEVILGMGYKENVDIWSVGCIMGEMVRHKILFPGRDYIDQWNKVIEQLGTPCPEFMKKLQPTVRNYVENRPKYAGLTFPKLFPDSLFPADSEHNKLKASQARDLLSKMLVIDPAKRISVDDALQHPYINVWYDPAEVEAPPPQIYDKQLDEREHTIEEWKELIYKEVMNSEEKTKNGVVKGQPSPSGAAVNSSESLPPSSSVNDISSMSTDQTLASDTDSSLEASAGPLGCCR

[8] = biological target: T1, Serine/threonine-protein kinase Sgk1 (Homo sapiens, UniProt O00141); experiment: Inhibition of SGK1
T1 sequence (O00141 whole entry): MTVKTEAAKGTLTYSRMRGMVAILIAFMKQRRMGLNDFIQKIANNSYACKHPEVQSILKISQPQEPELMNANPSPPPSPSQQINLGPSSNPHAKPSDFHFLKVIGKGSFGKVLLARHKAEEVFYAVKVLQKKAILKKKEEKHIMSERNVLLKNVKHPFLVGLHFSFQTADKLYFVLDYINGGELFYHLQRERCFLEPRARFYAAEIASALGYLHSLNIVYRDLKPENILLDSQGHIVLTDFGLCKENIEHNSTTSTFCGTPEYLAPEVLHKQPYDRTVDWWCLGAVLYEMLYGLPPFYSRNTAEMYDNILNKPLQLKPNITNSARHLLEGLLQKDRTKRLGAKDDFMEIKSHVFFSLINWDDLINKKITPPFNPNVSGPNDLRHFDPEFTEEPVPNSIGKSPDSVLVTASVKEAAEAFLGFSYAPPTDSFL

[9] = test system: PBMC; experiment: Inhibition of LPS-stimulated TNFalpha release in human PBMCs; type: functional, cell-based
[10] = biological target: Tyrosine-protein kinase Lck (Homo sapiens, UniProt P06239)
Tyrosine-protein kinase Lck, sequence (P06239 whole entry): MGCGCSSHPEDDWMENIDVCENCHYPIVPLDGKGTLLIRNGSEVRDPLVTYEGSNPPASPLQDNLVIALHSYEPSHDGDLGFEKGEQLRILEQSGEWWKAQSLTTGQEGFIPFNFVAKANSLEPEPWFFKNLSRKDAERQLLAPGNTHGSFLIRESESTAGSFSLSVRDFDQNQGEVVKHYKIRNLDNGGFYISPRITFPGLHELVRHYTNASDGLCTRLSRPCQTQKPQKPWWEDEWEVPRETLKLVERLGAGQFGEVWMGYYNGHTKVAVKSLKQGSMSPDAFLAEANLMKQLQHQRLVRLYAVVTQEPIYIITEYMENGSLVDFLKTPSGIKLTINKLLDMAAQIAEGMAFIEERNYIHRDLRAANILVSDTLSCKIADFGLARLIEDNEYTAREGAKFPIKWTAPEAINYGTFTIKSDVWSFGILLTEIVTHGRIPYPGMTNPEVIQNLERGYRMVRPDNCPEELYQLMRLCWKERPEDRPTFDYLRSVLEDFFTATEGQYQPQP

[11] = test system: Blood; experiment: Inhibition of LPS-stimulated TNFalpha release in human whole blood; type: functional, tissue-based
[12] = biological target: Receptor tyrosine-protein kinase erbB-4 (Homo sapiens, UniProt Q15303); experiment: Inhibition of ErbB4
Receptor tyrosine-protein kinase erbB-4, sequence (Q15303 whole entry): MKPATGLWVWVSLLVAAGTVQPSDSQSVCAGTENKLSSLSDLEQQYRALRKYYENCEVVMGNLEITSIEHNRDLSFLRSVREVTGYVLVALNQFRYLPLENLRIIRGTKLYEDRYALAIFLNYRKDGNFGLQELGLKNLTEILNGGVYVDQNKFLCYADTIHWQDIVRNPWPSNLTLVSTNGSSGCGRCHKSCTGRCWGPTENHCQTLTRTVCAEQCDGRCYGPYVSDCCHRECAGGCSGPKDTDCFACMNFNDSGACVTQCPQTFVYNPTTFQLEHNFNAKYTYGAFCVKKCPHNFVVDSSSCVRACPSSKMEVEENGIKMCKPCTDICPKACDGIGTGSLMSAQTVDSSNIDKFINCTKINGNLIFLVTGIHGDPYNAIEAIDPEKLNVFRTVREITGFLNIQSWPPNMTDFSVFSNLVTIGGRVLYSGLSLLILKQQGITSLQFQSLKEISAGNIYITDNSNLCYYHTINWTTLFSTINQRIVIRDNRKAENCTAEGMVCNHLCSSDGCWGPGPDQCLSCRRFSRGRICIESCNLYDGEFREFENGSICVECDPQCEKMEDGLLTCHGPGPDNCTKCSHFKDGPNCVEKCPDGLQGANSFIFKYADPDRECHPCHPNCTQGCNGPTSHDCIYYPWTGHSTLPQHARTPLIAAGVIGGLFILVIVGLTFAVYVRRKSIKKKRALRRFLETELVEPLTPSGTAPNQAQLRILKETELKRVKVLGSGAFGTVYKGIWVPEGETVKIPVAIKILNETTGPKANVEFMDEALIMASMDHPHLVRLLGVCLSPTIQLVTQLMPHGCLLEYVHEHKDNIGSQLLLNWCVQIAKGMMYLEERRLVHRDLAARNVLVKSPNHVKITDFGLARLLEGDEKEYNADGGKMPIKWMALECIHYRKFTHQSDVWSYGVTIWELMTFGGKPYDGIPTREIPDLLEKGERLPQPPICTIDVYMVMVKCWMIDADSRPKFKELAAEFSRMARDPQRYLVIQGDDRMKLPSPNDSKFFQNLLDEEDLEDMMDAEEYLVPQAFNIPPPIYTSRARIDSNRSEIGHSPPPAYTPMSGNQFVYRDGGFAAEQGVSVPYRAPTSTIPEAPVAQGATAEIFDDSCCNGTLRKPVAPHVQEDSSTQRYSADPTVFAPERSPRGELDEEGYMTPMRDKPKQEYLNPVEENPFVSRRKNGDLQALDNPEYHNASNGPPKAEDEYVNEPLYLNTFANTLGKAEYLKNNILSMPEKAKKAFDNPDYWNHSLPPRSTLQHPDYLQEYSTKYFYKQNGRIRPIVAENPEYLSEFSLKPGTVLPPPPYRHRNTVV

[13] = biological target: Epidermal growth factor receptor (Homo sapiens, UniProt P00533)

Mitogen-activated protein kinase 14, sequence (Q16539 whole entry): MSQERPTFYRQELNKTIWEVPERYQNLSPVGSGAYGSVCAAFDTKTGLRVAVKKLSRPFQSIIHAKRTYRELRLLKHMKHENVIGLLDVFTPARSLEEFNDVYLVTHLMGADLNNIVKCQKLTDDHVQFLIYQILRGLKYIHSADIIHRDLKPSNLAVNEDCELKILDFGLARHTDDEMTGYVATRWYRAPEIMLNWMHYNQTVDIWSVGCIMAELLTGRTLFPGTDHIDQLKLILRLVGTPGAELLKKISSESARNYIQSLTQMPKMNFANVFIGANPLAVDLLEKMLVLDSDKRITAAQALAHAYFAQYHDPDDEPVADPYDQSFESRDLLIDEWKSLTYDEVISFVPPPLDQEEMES

- Ki [1]: 14 nM
Compound: CC(=O)Nc1cc(-c2ccc(-c3cc(NC(=O)c4ccnc(N5CCCC5)c4)ccc3C)cc2)[nH]n1

- IC50 [2]: 40 nM
- IC50 [3]: > 25000 nM
- IC50 [4]: > 20000 nM
- IC50 [5]: > 20000 nM
- IC50 [6]: > 20000 nM
- IC50 [7]: > 16000 nM
- IC50 [8]: > 33000 nM
Compound: Cc1ccc(C(=O)Nc2cccc(N3CCOCC3)c2)cc1-c1ccc2c(C3CCNCC3)noc2c1

- IC50 [2]: 30 nM
- IC50 [10]: 6000 nM
- IC50 [3]: > 25000 nM
- IC50 [4]: 7000 nM
- Ki [1]: 0.8 nM
- IC50 [5]: > 20000 nM
- IC50 [6]: > 20000 nM
- IC50 [11]: 5000 nM
- IC50 [7]: > 16000 nM
- IC50 [8]: > 33000 nM
Compound: Cc1ccc(NC(=O)c2ccnc(N3CCCC3)c2)cc1-c1ccc2c(C3CCNCC3)noc2c1
- IC50 [9]: 60 nM

- IC50 [2]: 200 nM
- IC50 [10]: 10000 nM
- IC50 [3]: > 25000 nM
- IC50 [4]: > 20000 nM
- Ki [1]: 1.7 nM
- IC50 [5]: > 20000 nM
- IC50 [6]: > 20000 nM
- IC50 [11]: 700 nM
- IC50 [7]: > 16000 nM
- IC50 [8]: > 33000 nM
Compound: Cc1nnc(-c2ccc(-c3cc(NC(=O)c4ccnc(N5CCCC5)c4)ccc3C)c(C)c2)o1
- IC50 [9]: 100 nM

- Ki [1]: 380 nM
Compound: Cc1ccc(C(=O)Nc2cccc(N3CCOCC3)c2)cc1-c1ccc2onc(C)c2c1

- Ki [1]: 49 nM
Compound: Cc1ccc(NC(=O)c2ccnc(N3CCCC3)c2)cc1-c1ccc2[nH]c(=O)ccc2c1

- Ki [1]: 110 nM
Compound: Cc1ccc(C(=O)Nc2cccc(N3CCOCC3)c2)cc1-c1ccc2[nH]ncc2c1

Compound: Cc1ccc(NC(=O)c2ccc(CN3CCN(C)CC3)cc2)cc1-c1ccc(-c2csc(N)n2)cc1
- IC50 [12]: > 25000 nM
- IC50 [10]: 2000 nM
- IC50 [13]: > 25000 nM
- IC50 [3]: > 25000 nM
- IC50 [4]: 90 nM
- Ki [1]: > 850 nM
- IC50 [5]: > 20000 nM
- IC50 [6]: > 20000 nM
- IC50 [7]: > 16000 nM
- IC50 [8]: > 33000 nM

- Ki [1]: 98 nM
Compound: Cc1nc(-c2ccc(-c3cc(C(=O)NC4CC4)ccc3C)cc2)no1

- Ki [1]: 4.7 nM
Compound: Cc1ccc(C(=O)Nc2cccc(N3CCOCC3)c2)cc1-c1ccc2nc(N)[nH]c(=O)c2c1

- Ki [1]: 49 nM
Compound: Cc1ccc(C(=O)NC2CC2)cc1-c1ccc2nc(N)[nH]c(=O)c2c1

- Ki [1]: 17 nM
Compound: Cc1nc(-c2ccc(-c3cc(C(=O)Nc4cccc(N5CCOCC5)c4)ccc3C)cc2)no1

- Ki [1]: 490 nM
Compound: Cc1ccc(C(=O)NC2CC2)cc1-c1ccc2cccnc2c1

- Ki [1]: > 2500 nM
Compound: Cc1ccc(NC(=O)c2ccc(CN3CCN(C)CC3)cc2)cc1-c1ccc2cccnc2c1

- Ki [1]: 6.7 nM
Compound: Cc1ccc(C(=O)NC2CC2)cc1-c1ccc2c(=O)cc(-c3cccs3)oc2c1

- Ki [1]: 290 nM
Compound: Cc1ccc(C(=O)Nc2cccc(N3CCOCC3)c2)cc1-c1ccc2[nH]c(=O)ccc2c1

- Ki [1]: > 850 nM
Compound: Cc1nc(-c2ccc(-c3cc(NC(=O)c4ccc(CN5CCN(C)CC5)cc4)ccc3C)cc2)no1

- Ki [1]: 11 nM
Compound: CCCCn1c(=O)[nH]c2cc(-c3cc(NC(=O)c4ccnc(N5CCCC5)c4)ccc3C)ccc2c1=O

Compound: Cc1nnc(-c2ccc(-c3cc(NC(=O)c4ccc(CN5CCN(C)CC5)cc4)ccc3C)c(C)c2)o1
- IC50 [12]: > 25000 nM
- IC50 [10]: 3000 nM
- IC50 [13]: > 25000 nM
- IC50 [3]: > 25000 nM
- IC50 [4]: 100 nM
- Ki [1]: 1400 nM
- IC50 [5]: > 20000 nM
- IC50 [6]: > 20000 nM
- IC50 [7]: > 16000 nM
- IC50 [8]: > 33000 nM

- Ki [1]: 12 nM
Compound: Cc1ccc(NC(=O)c2ccnc(N3CCCC3)c2)cc1-c1ccc2c(N)noc2c1

Compound: Cc1ccc(NC(=O)c2ccc(CN3CCN(C)CC3)cc2)cc1-c1ccc2c(N)noc2c1
- IC50 [12]: > 25000 nM
- IC50 [10]: 1000 nM
- IC50 [13]: > 25000 nM
- IC50 [3]: > 25000 nM
- IC50 [4]: 90 nM
- Ki [1]: > 850 nM
- IC50 [5]: > 20000 nM
- IC50 [6]: > 20000 nM
- IC50 [7]: > 16000 nM
- IC50 [8]: > 33000 nM

- Ki [1]: 4.5 nM
Compound: Cc1ccc(C(=O)Nc2cccc(N3CCOCC3)c2)cc1-c1ccc2ccncc2c1

- IC50 [12]: > 25000 nM
- IC50 [2]: > 50000 nM
- IC50 [13]: > 25000 nM
- IC50 [3]: > 25000 nM
- IC50 [4]: > 20000 nM
- Ki [1]: 4 nM
- IC50 [5]: > 20000 nM
- IC50 [6]: > 20000 nM
- IC50 [11]: 3000 nM
- IC50 [8]: > 33000 nM
Compound: Cc1ccc(C(=O)NC2CC2)cc1-c1ccc2c(C3CCNCC3)noc2c1
- IC50 [9]: 200 nM

- Ki [1]: 18 nM
Compound: CCCCn1c(=O)[nH]c2cc(-c3cc(C(=O)NC4CC4)ccc3C)ccc2c1=O
